What was measured:
Assay type in all cases: cell-based
neutrophil oxidase = experiment: Priming of the neutrophil oxidase / fMLP stimulated respiratory burst by biologically active compounds; settings: added directly to the assay
From the text: The priming activity of plasma specimens from various sources including patient samples and blood components has been described herein. The effects on priming by various dilutions may correlate with the concentration of biologically active compounds in the specimens. Many of these compounds are well characterized and their priming activities determined. […] Each has its own concentration dependent effects. […] Similar effects are seen with complement fragments (e.g., C5a), other biologically active lipids (e.g., leukotrienes), and other compounds (e.g., sCD40L). Antibodies to neutrophil antigens (e.g., HNA-3a) also can prime the oxidase enzyme system. All these agents may be detected in plasma from blood components implicated in TRALI or plasma from patients sustaining a TRALI reaction. All may be added directly to the assay and priming activity detected as described in other sections.

[1] = system: peripheral blood neutrophils; experiment: Priming assay using fluorescent probe (DHR) for hydrogen peroxide, flow cytometry
Protocol: Hydrogen peroxide (H2O2) is another reactive oxygen species produced by neutrophils when the NADPH oxidase and associated respiratory burst are activated. H2O2 can be detected intracellularly by incubating cells with dihydrorhodamine (DHR). This non-fluorescent compound will be oxidized to rhodamine, a potent fluorophore, when H2O2 is generated by activated neutrophils. This assay can be used to detect enhancement of the fMLP stimulated respiratory burst. […] Isolated peripheral blood neutrophils are incubated with 50 μM DHR. After exposure to fMLP (1 μM) or PAF (1 μM) for 3 minutes and fMLP (1 μM), the cells are placed on ice and samples analyzed with the evaluation of 10,000 events on a BD Canto flow cytometer. […] When PAF is used to prime the fMLP response, the result is a marked increase in H2O2 production expressed as MCF (˜250 MCF units).
This assay has been further optimized for the following reagents: DHR, 50 μM with the best loading time of 1 minute. Optional concentration of fMLP is 1 μM and PAF 1 μM. The assay should be analyzed in a flow cytometer as soon as possible but may be delayed up to 4 hours after completion without jeopardizing the results. Finally, plasma itself quenches the fluorescence. As a result the priming assay on this platform requires exposure of the cells to buffer or test sample for priming (PAF, plasma, etc), a low speed centrifugation to pellet cells, resuspension of cells in DHR containing buffer, then stimulation with fMLP. Determination of MCF is by analysis of 20,000 events. FIG. 6 summarizes results, expressed as mean ±SEM, with this assay in four separate experiments. Resting cells with buffer present very low levels of H2O2 with an increase when resting cells are stimulated with fMLP. Plasma from Day 0 and 7 stored platelet concentrates has little effect in the absence of fMLP.

cytoplasts = experiment: Cytoplast priming assay, superoxide anion measured as cytochrome c reduction; settings: PAF 1 μM, fMLP 1 μM
Protocol: Cytoplasts are neutrophils which have been sedimented on a 20% Ficoll gradient at 77,000×g. Cytoplasts, are devoid of nucleus, granules and other subcellular organelles. Cytoplasts retain the ability for random and directed migration, phagocytosis of opsonized particles as well as activation of a respiratory burst and generation of reactive oxygen species. They can be frozen at −70° C. and thawed; the thawed cytoplasts can be used as targets for priming activity. The advantage is that cytoplasts would be readily available for assaying priming activity of biologic specimens (FIG. 1B, 113) in place of freshly isolated neutrophils from a healthy donor.

neutrophils = experiment: Detection of priming by chemiluminescence (Diogenes probe); settings: priming sample, then fMLP; FIG. 7 and FIG. 8
Protocol: A third assay makes use of energy from chemiluminescence to determine oxygen radical generation from activated neutrophils. In this reaction, neutrophils are incubated with the priming sample or buffer, then exposed to fMLP after addition of the chemiluminescent probe, Diogenes, and the energy released determined in a chemiluminescence reader. The optimal cell concentration is between 2.5×10^6 cells/ml and 5×10^6 cells/ml. The chemiluminescence is >90% SOD inhibitable and so detects superoxide anion. The optimal addition of diogene is 20 μl to provide specific determination of oxygen radicals released by the neutrophils respiratory burst. […] Buffer alone is included for control. […] As with fluorescence platform, plasma nonspecifically quenches the chemiluminescence. This can be circumvented with an extra wash step to remove plasma after incubating cells with the priming stimulus. The resultant assay is sensitive to the effect in stored blood products. […] The priming effect for PAF is presented for comparison. The results are expressed as mean ±SEM. This platform, using chemiluminescence, can be used to determine priming by biologic samples.

IL-8: cytokine/chemokine found in biologically active plasma samples
priming of the fMLP stimulated respiratory burst (neutrophil oxidase): concentration dependent priming

TNF-alpha
priming of the fMLP stimulated respiratory burst (neutrophil oxidase): concentration dependent priming

fMLP
mean channel fluorescence (H2O2 production) ([1]; fMLP 1 μM by itself, 50 μM DHR, FIG. 5): 45

platelet activating factor [PAF]
enhancement of the fMLP stimulated respiratory burst by priming (cytoplasts): 1.6 to 2.0 fold | H2O2 production expressed as MCF ([1]; PAF 1 μM for 3 minutes, then fMLP 1 μM, 50 μM DHR, FIG. 5): ~250 MCF units | priming of the fMLP stimulated respiratory burst (H2O2, MCF) ([1]; priming sample, then fMLP, four separate experiments, FIG. 6): markedly enhanced | priming of the fMLP stimulated chemiluminescence (RLUs) (neutrophils): higher level of relative light units (RLUs) as well as a more prolonged time course at maximal production

Source: patent US20090233372A1, “COMPOSITIONS, KITS AND METHODS FOR DETERMINING ETIOLOGY OF TRALI AND DETECTING PATIENTS AT RISK FOR THIS TRANSFUSION REACTION” (Bonfils Blood Center, priority 2008, published 2009)
